According to US4716159A, “Pyridazino[4,3-c]-isoquinolines having anti-anxiety activity” (Gruppo Lepetit, S.p.A., priority 1983, dated 1987):

Assays:
mice [1] = assay: anti-bicuculline test in mice; type: in vivo; conditions: for prevention of seizures (bicuculline): i.p. (highest dose tested), bicuculline 2 mg/kg s.c., compound 30 min before
Protocol: The experiments were conducted essentially following the methodology described by P. De La Mora et R. Tapia in Biochem. Pharmac. 22, 2635-2639 (1973). A dose of bicuculline (2 mg/kg, s.c.) was administered to groups of ten mice each which had been given a fixed dose of the text compound 30 minutes before treatment. […] The significance of this fact has not yet been completely clarified since it was first described only recently for two quinoline derivatives (see G. Le Fur et al., Life Sci., 28, 1439-1448 (1981)). […] The favourable pharmacological properties of the compounds of the present invention are accompanied by a generally low toxicity, as in fact the acute toxicity of the compounds of the present invention is in general from 200 to more than 600 mg/kg, i.p. In view of the above, the use of the compounds of the present invention as anticonvulsant and antianxiety agents is a further specific object of the present invention. With the term "use" it is intended to refer to all industrially applicable aspects and acts of said use, including the embodiment of the novel compounds into pharmaceutical compositions.

mice [2] = assay: antipentylenetetrazole assay in mice; type: in vivo; conditions: for prevention of tonic extensor seizures (pentylenetetrazole): pentylenetetrazole 140 mg/kg s.c., compound 30 min before
Protocol: The antipentylenetetrazole assay in mice have been carried out by essentially following the methodology described by Berger in J. Pharm. Exptl. Ther. 104, 468, (1952). A fatal dose of pentylenetetrazole (140 mg/kg, s.c.) was administered to groups of ten mice each, treated, 30 minutes before the administration of the convulsant agent, with a selected dose of the test compound.

rats = assay: conflict test in rats (punished responding, Vogel method as modified by Lippa); type: in vivo, rat; conditions: i.p., 60 minutes after administration; for minimal effective dose: Rattus norvegicus, ip, 1 h, read-out: MED (minimal effective dose which significantly increased the number of shocks)
Protocol: The ability of the compounds of the present invention to increase punished responding in animals in a conflict situation, a procedure with high validity for predicting the anxiolytic effect of drugs, was assessed by testing these compounds in rats according to the method described by J. R. Vogel, B. Beer, D. E. Clody in Psycopharmacologia 21, 1-7, (1971) as modified by A. S. Lippa et al., in "Anxiolytics, Industrial Pharmacology",Vol. 3, Futura Publishing, 1979, pages 41-81.
Briefly, rats are deprived of water for 48 hours and deprived of food for 20 hours prior to testing. Sixty minutes after administration of the test compound each rat is placed in an specially equipped cage. A glucose solution is available from a tap located in the rear of the cage. A constant pulsating shocking current is connected between the grid floor and the tap. Each rat is allowed 20 seconds of non-shocked drinking, then cycles of 5 seconds shock-off and 5 seconds shock-on began. During the shock-on period each lick on the top is accompanied by shock. The number of shocks received by each animal is recorded and minimal effective doses are determined.

benzodiazepine receptor = benzodiazepine receptor test (displacement of 3H-diazepam from rat brain receptors); type: binding; conditions: for Ki: 3H-diazepam, unit inferred; for Inhibition % of the 3H diazepam binding: test compound at 3,6 μM
Protocol: The anti-anxiety activity of the compounds of the present invention was first detected by submitting some representative compounds to the benzodiazepine receptor test. […] Our experiments were carried out by following the method described by H. Moand T. Okada in Life Sciences, Vol. 20, 2101-2110 (1977).
of the test compound of 3,6 μM.

[3] = 100 mg/kg (highest dose tested)

Molecule	prevention of seizures (bicuculline) (mice [1]; 100 mg/kg)	prevention of tonic extensor seizures (pentylenetetrazole) (mice [2]; 50 mg/kg (highest dose tested))	minimal effective dose (rats) [mg/kg]	Ki (benzodiazepine receptor) [nM]	Inhibition % of the 3H diazepam binding (benzodiazepine receptor) [%]	also measured
COCCN(CCOC)c1nc2cc(-c3ccc(OC)cc3)nnc2c2ccccc12 [Example 15, N,N-bis(2-methoxyethyl)-3-(4-methoxyphenyl)pyridazino[4,3-c]isoquinolin-6-amine]	failed to prevent seizures	uneffective	10	1180	–	–
c1ccc(-c2cc3nc(N4CCOCC4)c4ccccc4c3nn2)cc1 [Example 6, 3-Phenyl-6-(4-morpholinyl)pyridazino[4,3-c]-isoquinoline]	–	–	15	152	–	prevention of seizures (bicuculline) (mice [1]; 50 mg/kg): uneffective; prevention of tonic extensor seizures (pentylenetetrazole) (mice [2]; [3]): failed to prevent tonic extensor seizures
COc1ccc(-c2cc3nc(N4CCCCC4)c4ccccc4c3nn2)cc1 [Example 19, 3-(4-Methoxyphenyl)-6-(1-piperidinyl)-pyridazino[4,3-c]isoquinoline]	failed to prevent seizures	uneffective	10	–	-70	–
CC(C)Oc1nc2cc(-c3ccccc3)nnc2c2ccccc12 [Example 10]	–	–	–	1900	–	–
CCOc1nc2cc(-c3ccccc3)nnc2c2ccccc12 [Example 9, 6-Ethoxy-3-phenyl-pyridazino [4,3-c]isoquinoline]	–	–	–	1480	–	–
CCOC(=O)CCCN(C)c1nc2cc(-c3ccc(OC)cc3)nnc2c2ccccc12 [Example 16]	–	–	–	–	-69	–
Clc1ccc(-c2cc3nc(N4CCCC4)c4ccccc4c3nn2)cc1 [Example 27, 3-(4-Chlorophenyl)-6-(l-pyrrolidinyl)pyridazino[4,3-c]isoquinoline]	–	–	–	–	-63	–
COc1ccc(-c2cc3nc(N(C)C)c4ccccc4c3nn2)cc1 [Example 13, N,N-dimethyl-3-(4-methoxyphenyl)pyridazino[4,3-c]isoquinolin-6-amine]	failed to prevent seizures	uneffective	10	63.3	–	–
COCCOc1nc2cc(-c3ccc(OC)cc3)nnc2c2ccccc12 [Example 24, 6-(2-Methoxyethoxy)-3-(4-methoxyphenyl)pyridazino[4,3-c]isoquinoline]	–	–	–	–	-47	–
CC(O)CN(C)c1nc2cc(-c3ccccc3)nnc2c2ccccc12 (centres unmarked) [Example 4, 1-[(3-Phenyl-pyridazino[4,3-c]isoquinolin-6-yl)methylamino]-2-propanol]	–	–	30	136	–	prevention of seizures (bicuculline) (mice [1]; 50 mg/kg): uneffective; prevention of tonic extensor seizures (pentylenetetrazole) (mice [2]; [3]): failed to prevent tonic extensor seizures
3-Methyl-pyridazino[4,3-c]isoquinoline [Example 32]	failed to prevent seizures	uneffective	–	245	–	MED (minimal effective dose which significantly increased the number of shocks) (rats): 20 Mg/Kg
Clc1nc2cc(-c3ccccc3)nnc2c2ccccc12 [Example 1, 6-Chloro-3-phenyl-pyridazino-[4,3-c]-isoquinoline]	–	–	–	–	-36	–
CN1C(=O)CN=C(c2ccccc2)c2cc(Cl)ccc21 [Diazepam, reference compound]	–	–	–	–	–	ED50 (mice [1]; Mus musculus, ip, 0.5 h, i.p., same experiment, read-out: ED50 (dose which prevents tonic extensor seizures in 50% of the treated animals), bicuculline): 0.18 mg/kg; ED50 (mice [2]; Mus musculus, ip, 0.5 h, i.p., same experiment, read-out: ED50 (dose which prevents tonic extension seizures in 50% of the treated animals), pentylenetetrazole): 0.2 mg/kg
c1ccc(-c2cc3nc(N4CCCC4)c4ccccc4c3nn2)cc1 [Example 5, 3-phenyl-6-(1-pyrrolidinyl)pyridazino-[4,3-c]isoquinoline]	–	–	5	11.4	–	prevention of seizures (bicuculline) (mice [1]; 50 mg/kg): uneffective; prevention of tonic extensor seizures (pentylenetetrazole) (mice [2]; [3]): failed to prevent tonic extensor seizures
CCOC(=O)C1CCN(c2nc3cc(-c4ccc(OC)cc4)nnc3c3ccccc23)CC1 [Example 21]	–	–	–	–	-39	–
CN(C)c1nc2cc(-c3ccccc3)nnc2c2ccccc12 [Example 2, 3-Phenyl-N,N-dimethyl-pyridazino-[4,3-c]-isoquinolin-6-amine]	failed to prevent seizures	uneffective	10	28.4	–	–
COc1ccc(-c2cc3nc(N4CCCC4)c4ccccc4c3nn2)cc1 [Example 18]	failed to prevent seizures	uneffective	20	18.7	–	–
COc1ccc(-c2cc3nc(N(C)CC(C)O)c4ccccc4c3nn2)cc1 (centres unmarked) [Example 14]	failed to prevent seizures	uneffective	30	221	–	–
COc1ccc(-c2cc3nc(N4CCOCC4)c4ccccc4c3nn2)cc1 [Example 20, 3-(4-Methoxyphenyl)-6-(4-morpholinyl)-pyridazino[4,3-c]isoquinoline]	failed to prevent seizures	uneffective	30	–	-76	–
CCN(C)c1nc2cc(-c3ccccc3)nnc2c2ccccc12 [Example 3, N-ethyl-3-phenyl-N-methylpyridazino-[4,3-c]-isoquinolin-6-amine]	–	–	10	65.2	–	prevention of seizures (bicuculline) (mice [1]; 50 mg/kg): uneffective; prevention of tonic extensor seizures (pentylenetetrazole) (mice [2]; [3]): failed to prevent tonic extensor seizures
CCOC(=O)N1CCN(c2nc3cc(-c4ccc(OC)cc4)nnc3c3ccccc23)CC1 [Example 22]	–	–	–	–	-61	–
COc1ccc(-c2cc3nc(N4CCC4)c4ccccc4c3nn2)cc1 [Example 17, 6-(1-Azetidinyl)-3-(4-methoxyphenyl)pyridazino[4,3-c]isoquinoline]	failed to prevent seizures	uneffective	30	130	–	–
